How the values were obtained:
HFL-1 cells [1] = assay: IL8 assay in the presence of Human Serum Albumin; format: cell-based; conditions: HFL1, S1P (5 μM) induced IL-8, HFL-1 cells, with 2% HSA, read-out: HSA IL8 EC50
Description: (§1) S1P is able to induce cytokines such as IL-8 in a process that is S1PR2 dependent (O'Sullivan et al, 2014; Bruennert et al, 2015). This assay is designed to test inhibitory activity of compounds on S1P induced IL-8 on HFL-1 cells, a human fetal lung fibroblast cell line.
To evaluate the influence of plasma protein binding of Sip as well as compound, the S1P induced IL-8 levels were evaluated in presence of 2% Human Serum Albumin (HSA, equivalent to 40% human serum). By adding 2% HSA, which affects both the activity of the compounds as well as the S1P potency, the physiological condition are reproduced and the shift in potency expected under in vivo serum conditions can be measured.
(§2) Human Fetal Lung cells (HFL-1) are seeded in 96 well plates in growth medium (F12K+10% heat inactivated FBS+1% Pen/strep). After overnight incubation at 37° C., 5% CO2 cells are refreshed with starvation medium with HSA (F12K+1% FBS+1% Pen/strep+1.95% HSA). On day three, compounds are added (10 point serial dilution, 30 μM highest concentration, 1/3 dilution, 0.3% DMSO final) and plates are incubated for 1 h at 37° C., 5% CO2. Subsequently S1P at 5 μM final concentration is added and plates are incubated for 16 to 24 h at 37° C., 5% CO2 after which the supernatant was collected. IL-8 levels in the supernatant are determined with the IL-8 ELISA of R&D systems.

S1PR2 = biological target: T1, S1PR2 (Homo sapiens, UniProt O95136); assay: GTP-γS binding assay ([35S]GTPγS, S1P at EC80, S1PR2 membranes); format: biochemical; conditions: membranes from stable cell line over expressing S1PR2, read-out: S1PR2 EC
T1 construct: expressed in transfected cells
T1 sequence (O95136 whole entry): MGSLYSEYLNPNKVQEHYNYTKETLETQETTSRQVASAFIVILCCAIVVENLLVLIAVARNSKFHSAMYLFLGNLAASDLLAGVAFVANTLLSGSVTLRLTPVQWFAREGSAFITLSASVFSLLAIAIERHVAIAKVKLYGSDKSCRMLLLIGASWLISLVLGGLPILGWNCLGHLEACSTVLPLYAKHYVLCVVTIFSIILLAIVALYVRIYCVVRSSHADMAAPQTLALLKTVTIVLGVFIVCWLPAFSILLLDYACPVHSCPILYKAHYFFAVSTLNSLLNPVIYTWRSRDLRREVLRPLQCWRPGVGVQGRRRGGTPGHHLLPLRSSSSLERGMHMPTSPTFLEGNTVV
Summary of the method: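 Compounds tested against S1P at its EC80 on membranes (2.5 μg/well) from a stable S1PR2-overexpressing line, pre-incubated with 1 μM GDP 15 min at 4 °C. Buffer: 20 mM Tris pH 7.5, 10 mM MgCl2, 100 mM NaCl, 0.1% fatty-acid-free BSA, 50 ug/ml saponin. Incubated 4 h at room temperature; [35S]GTPγS binding read by WGA SPA beads.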

HFL-1 cells [2] = assay: IL8 assay (S1P induced IL-8 production); format: cell-based; conditions: Homo sapiens, HFL1; S1P (1 μM) induced IL-8, HFL-1 cells, without HSA
Description: as §1
as §2, with “medium without” for “medium with”, “FBS+1% Pen/strep).” for “FBS+1% Pen/strep+1.95% HSA).”, “concentration, ⅓” for “concentration, 1/3”, “for one hour” for “for 1 h”, “at 1” for “at 5”, “24 hours” for “24 h”

[3] = biological target: T2, human GPCR sphingosine 1-phosphate receptor 5 (S1PR5) (Homo sapiens, UniProt Q9H228); assay: S1PR5 selectivity assay (Ca2+ flux, antagonist, S1PR5 specific agonist trigger); format: cell-based; conditions: S1P5 antagonist EC50, CHO cells overexpressing human S1PR5 and Gq protein
T2 construct: host or cells: CHO
T2 sequence (Q9H228 whole entry): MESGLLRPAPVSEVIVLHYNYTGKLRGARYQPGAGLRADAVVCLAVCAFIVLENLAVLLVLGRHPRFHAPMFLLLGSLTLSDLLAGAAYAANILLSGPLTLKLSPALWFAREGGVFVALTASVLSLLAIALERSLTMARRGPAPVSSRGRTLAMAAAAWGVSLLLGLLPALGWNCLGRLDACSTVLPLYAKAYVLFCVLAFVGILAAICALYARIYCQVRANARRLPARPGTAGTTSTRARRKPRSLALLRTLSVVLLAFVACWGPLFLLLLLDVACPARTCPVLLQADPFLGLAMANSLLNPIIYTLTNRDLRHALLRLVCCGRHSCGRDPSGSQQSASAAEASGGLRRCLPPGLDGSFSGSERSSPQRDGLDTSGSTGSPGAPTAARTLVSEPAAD
Summary of the method: (§3)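 CHO cells stably overexpressing human S1PR1 or S1PR5 with Gq were preincubated with compound 15 min at 37 °C, then stimulated with S1P at EC80 (S1PR1) or an S1PR5-specific agonist (S1PR5). Ca2+ fluorescence was read for 3 min; 10-point 1/3 dilutions from 20 μM final, normalized to vehicle and EC80 trigger, gave EC50.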

[4] = biological target: T3, human GPCR sphingosine 1-phosphate receptor 2 (S1PR2) (Homo sapiens, UniProt O95136); assay: S1P2 antagonist assay (Ca2+ flux, S1P at EC80); format: cell-based; conditions: CHO-S1PR2 cells, highest concentration 20 μM
T3 construct: host or cells: CHO
T3 sequence (O95136 whole entry): as the sequence (O95136 whole entry) above
Summary of the method: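 CHO cells stably overexpressing human S1PR2, serum-starved 1 h and loaded with Fluo8 dye, were read for 3 min after compound addition, then stimulated with S1P at EC80 after 15 min at 37 °C. Top concentration 20 μM in a 10-point 1/3 series; Ca2+ fluorescence ratio normalized to vehicle and S1P EC80, giving EC50.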

[5] = biological target: T4, human GPCR sphingosine 1-phosphate receptor 1 (S1PR1) (Homo sapiens, UniProt P21453); assay: S1PR1 selectivity assay (Ca2+ flux, antagonist); format: cell-based; conditions: S1P1 antagonist EC50, CHO cells overexpressing human S1PR1 and Gq protein
T4 construct: host or cells: CHO
T4 sequence (P21453 whole entry): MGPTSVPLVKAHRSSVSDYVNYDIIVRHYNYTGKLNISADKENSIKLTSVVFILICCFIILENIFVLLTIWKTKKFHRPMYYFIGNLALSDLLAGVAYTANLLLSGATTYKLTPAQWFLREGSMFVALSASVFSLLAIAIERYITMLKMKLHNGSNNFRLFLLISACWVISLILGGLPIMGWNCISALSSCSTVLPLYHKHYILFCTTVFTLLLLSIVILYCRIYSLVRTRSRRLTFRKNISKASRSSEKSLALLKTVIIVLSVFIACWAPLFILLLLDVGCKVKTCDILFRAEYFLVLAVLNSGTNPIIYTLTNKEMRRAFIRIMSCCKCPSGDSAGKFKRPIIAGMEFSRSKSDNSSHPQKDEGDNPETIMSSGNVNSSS
Summary of the method: as §3

Compound	IC50 (HFL-1 cells [1])	EC50 (S1PR2)	EC50 (HFL-1 cells [2])	EC50 [3]	EC50 [4]	EC50 [5]
CCOc1cc(NC(=O)NCc2cc(C)c(-c3cn(C)nc3C(F)(F)F)nn2)cc(C(F)(F)F)n1 [Compound 1, 1-(2-Ethoxy-6-trifluoromethyl-pyridin-4-yl)-3-[5-methyl-6-(1-methyl-3-trifluoromethyl-1H-pyrazol-4-yl)-pyridazin-3-ylmethyl]-urea]	61.5 nM	33.2 nM	2.2 nM	6.61 µM	9.5 nM	5.97 µM
CCOc1cc(NC(=O)NCc2cc(C)c(-c3cn(C)nc3C(F)(F)F)nn2)cc(Cl)n1 [Compound 2, 1-(2-Chloro-6-ethoxy-pyridin-4-yl)-3-[5-methyl-6-(1-methyl-3-trifluoromethyl-1H-pyrazol-4-yl)-pyridazin-3-ylmethyl]-urea]	25.1 nM	22.4 nM	1.5 nM	4.6 µM	8.5 nM	4.54 µM
CCOc1cc(NC(=O)NC(C)c2cc(C)c(-c3cn(C)nc3C(F)(F)F)nn2)cc(Cl)n1 (centres unmarked) [Compound 3, 1-(2-chloro-6-ethoxy-4-pyridyl)-3-[1-[5-methyl-6-[1-methyl-3-(trifluoromethyl)pyrazol-4-yl]pyridazin-3-yl]ethyl]urea]	478 nM	115 nM	22 nM	6.61 µM	26 nM	≥ 19.8 µM
Cc1cc(CNC(=O)Nc2cc(OCCO)nc(C(F)(F)F)c2)nnc1-c1cn(C)nc1C(F)(F)F [Compound 4, 1-[2-(2-hydroxyethoxy)-6-(trifluoromethyl)-4-pyridyl]-3-[[5-methyl-6-[1-methyl-3-(trifluoromethyl)pyrazol-4-yl]pyridazin-3-yl]methyl]urea]	652 nM	873 nM	234 nM	≥ 19.8 µM	348 nM	≥ 19.8 µM
Cc1cc(CNC(=O)Nc2cc(OCC(O)CO)nc(C(F)(F)F)c2)nnc1-c1cn(C)nc1C(F)(F)F (centres unmarked) [Compound 5, 1-[2-(2,3-dihydroxypropoxy)-6-(trifluoromethyl)-4-pyridyl]-3-[[5-methyl-6-[1-methyl-3-(trifluoromethyl)pyrazol-4-yl]pyridazin-3-yl]methyl]urea]	9950 nM	11100 nM	1540 nM	≥ 19.8 µM	6610 nM	≥ 19.8 µM
CCOc1ncc(NC(=O)NCc2cc(C)c(-c3cn(C)nc3C(F)(F)F)nn2)cc1Cl [Compound 8, 1-(5-chloro-6-ethoxy-3-pyridyl)-3-[[5-methyl-6-[1-methyl-3-(trifluoromethyl)pyrazol-4-yl]pyridazin-3-yl]methyl]urea]	169 nM	306 nM	82.9 nM	≥ 19.8 µM	22 nM	≥ 19.8 µM
CCOc1cc(NC(=O)NCc2cc(C)c(-c3cn(C)nc3C(F)(F)F)nn2)cc(C#N)n1 [Compound 18, 1-(2-cyano-6-ethoxy-4-pyridyl)-3-[[5-methyl-6-[1-methyl-3-(trifluoromethyl)pyrazol-4-yl]pyridazin-3-yl]methyl]urea]	29 nM	35.8 nM	4.6 nM	≥ 19.8 µM	10.9 nM	6.61 µM
CCOc1nc(C(F)(F)F)cc(NC(=O)NCc2cc(C)c(-c3cn(C)nc3C(F)(F)F)nn2)c1C [Compound 30, 1-[2-ethoxy-3-methyl-6-(trifluoromethyl)-4-pyridyl]-3-[[5-methyl-6-[1-methyl-3-(trifluoromethyl)pyrazol-4-yl]pyridazin-3-yl]methyl]urea]	37.9 nM	26.2 nM	1.5 nM	3.28 µM	6.1 nM	4.48 µM
CCOc1cc(NC(=O)NCc2cc(C)c(-c3cn(C)nc3C(F)(F)F)nn2)cc(C)n1 [Compound 35, 1-(2-ethoxy-6-methyl-4-pyridyl)-3-[[5-methyl-6-[1-methyl-3-(trifluoromethyl)pyrazol-4-yl]pyridazin-3-yl]methyl]urea]	185 nM	242 nM	61.9 nM	≥ 19.8 µM	74.5 nM	≥ 19.8 µM
CCOc1nc(Cl)cc(NC(=O)NCc2cc(C)c(-c3cn(C)nc3C(F)(F)F)nn2)n1 [Compound 38, 1-(6-chloro-2-ethoxy-pyrimidin-4-yl)-3-[[5-methyl-6-[1-methyl-3-(trifluoromethyl)pyrazol-4-yl]pyridazin-3-yl]methyl]urea]	198 nM	109 nM	31.8 nM	≥ 19.8 µM	40.2 nM	≥ 19.8 µM
CCOc1cc(NC(=O)NCc2cc(C)c(-c3cn(C)nc3C)nn2)cc(Cl)n1 [Compound 68]	3460 nM	111 nM	153 nM		25.4 nM	≥ 19.8 µM
Cc1cc(CNC(=O)Nc2cc(C(F)(F)F)nc(OCCO)c2C)nnc1-c1cn(C)nc1C(F)(F)F [Compound 73, 1-[2-(2-hydroxyethoxy)-3-methyl-6-(trifluoromethyl)-4-pyridyl]-3-[[5-methyl-6-[1-methyl-3-(trifluoromethyl)pyrazol-4-yl]pyridazin-3-yl]methyl]urea]	256 nM	160 nM	51 nM		84 nM	≥ 19.8 µM
CCOc1cc(NC(=O)NCc2cc(C)c(N3CC(F)(F)C3)nn2)cc(Cl)n1 [Compound 83, 1-(2-Chloro-6-ethoxy-pyridin-4-yl)-3-[6-(3,3-difluoro-azetidin-1-yl)-5-methyl-pyridazin-3-ylmethyl]-urea]	30000 nM	160 nM	66 nM		11 nM	
CCOc1ncc(NC(=O)NCc2cc(C)c(N3CC(C)OC(C)C3)nn2)cc1C(F)(F)F (centres unmarked) [Compound 85, 1-[[6-(2,6-dimethyl-morpholin-4-yl)-5-methyl-pyridazin-3-yl]methyl]-3-[6-ethoxy-5-(trifluoromethyl)-3-pyridyl]urca]	9950 nM	3560 nM	427 nM		487 nM	
CCOc1cc(NC(=O)NCc2cc(C)c(N3C[C@@H](C)O[C@@H](C)C3)nn2)cc(C)n1 [Compound 93, 1-[[6-[(2R,6S)-2,6-dimethyl-morpholin-4-yl]-5-methyl-pyridazin-3-yl]methyl]-3-(2-ethoxy-6-methyl-4-pyridyl)urca]	2200 nM	2170 nM	753 nM	6.61 µM	1050 nM	
CCOc1nc(C)cc(NC(=O)NCc2cc(C)c(N3C[C@@H](C)O[C@@H](C)C3)nn2)c1Cl [Compound 94, 1-(3-chloro-2-ethoxy-6-methyl-4-pyridyl)-3-[[6-[(2R,6S)-2,6-dimethyl-morpholin-4-yl]-5-methyl-pyridazin-3-yl]methyl]urea]	5950 nM	509 nM	102 nM	0.479 µM	27 nM	
Cc1cc(CNC(=O)Nc2cc(Cl)nc(OCC(F)F)c2)nnc1N1CCOC(CN(C)C)C1 (centres unmarked) [Compound 97, 1-[2-chloro-6-(2,2-difluoroethoxy)-4-pyridyl]-3-[[6-[2-[(dimethylamino)methyl]morpholin-4-yl]-5-methyl-pyridazin-3-yl]methyl]urea]	1800 nM	274 nM	62 nM		81 nM	
